Consider 2 compounds from publication PMC9698010 (Pharmaceutics, 2022).

Structures are written as SMILES. Counter-ions that a name gives are not always drawn.

Data set [1] deals with IL-6. Kind of data set: LPS-induced inflammation, ascending dose oral solution study: plasma IL-6. The conditions noted are these: 1 mg/kg dexamethasone solution, 4 hours after administration. The class given is in vivo, male Lewis rats. How it is done: (§1) Male Lewis rats were fasted overnight before the day of experiment. Rats were chosen as an in vivo model in these experiments as they are commonly used for assessment of IBD investigatory treatments. […] To induce intestinal inflammation, rats were intraperitoneally injected with 1 mg/kg LPS at T1 h. Intraperitoneal injection of LPS is an accepted method for instigating inflammation in rats as pharmacodynamic endpoints. […] Controls used in this study were naïve rats (no induction of inflammation, placebo treatment (PBS)), treatment-free rats (LPS + vehicle (PBS)), and comparative treatment control rats (induction of inflammation, treatment with 1 mg/kg oral dexamethasone solution, formulated in PEG400/polysorbate 80 in deionized water (10/9/81). Rats not treated with LPS were instead injected with the same volume of PBS solution.

For data set [2], the system named is IL-6. Kind of data set: LPS-induced inflammation, capsule studies: colonic tissue IL-6. The class given is in vivo, male Lewis rats. The conditions noted are these: 1 mg/kg dexamethasone oral; targeted vs untargeted comparison, 8 h analysis.
Data set [3] has as its system IL-6. Kind of data set: LPS-induced inflammation, capsule studies: plasma IL-6. The class given is in vivo, male Lewis rats. The protocol:
To induce intestinal inflammation, 1 mg/kg LPS was injected intraperitoneally into rats at T5 h, this timing was chosen based on the CT imaging results, to allow capsules to reach the intestines. Inflammation-free control rats were instead intraperitoneally injected with an equal volume of PBS. Controls used in this study were naïve rats (no induction of inflammation, vehicle treatment (PBS)), treatment-free rats (LPS + vehicle (PBS)), and comparative treatment control rats (induction of inflammation, treatment with 1 mg/kg oral dexamethasone solution, formulated in PEG400/polysorbate 80 in deionized water (10/9/81), at T4 h). Animal sacrifice occurred at T8 h (3 h after LPS administration). Terminal plasma and colonic tissue were subsequently excised, and levels of IL-6 quantified using the V-PLEX validated immunoassay kit.

Data set [4] deals with IL-6. Kind of data set: LPS-induced inflammation, ascending dose oral solution study: colonic tissue IL-6. The conditions noted are these: 4 hours. The class given is in vivo, male Lewis rats. How it is done:
as §1

The next data set has as its system rat colonic microbiota. Kind of data set: Ex vivo stability of tofacitinib in rat cecal slurry (colonic microbiota). The class given is in vitro ADME. Conditions: 1 mg/mL in rat cecal slurry, anaerobic.
[5] abbreviates: 1 and 10 mg/kg tofacitinib solution.

Protocol for rat colonic microbiota: The cecum of healthy rats (male, n = 6) was obtained shortly following animal sacrifice and transferred to an anaerobic workstation (Electrotek 500TG workstation, Electrotek, West Yorkshire, UK) maintained at 37 °C and 70% relative humidity. The rats’ cecums were opened and fluid was collected using aseptic technique to preserve the fluid’s microbial composition. Next, the fluid was homogenised with basal media (ratio 1:4, composition as used by Hughes et al. [29] at 10,000 rpm and sieved through a mesh with 5 µm aperture.
Samples were taken at 0, 1, 2, 4, and 6 h and immediately quenched with ice-cold acetonitrile at a ratio of 1:3 to arrest microbial/enzyme activity. Quenched samples were then centrifuged (9600× g, 10 min, 4 °C) and the supernatant was collected for quantification of drug concentration using HPLC.
A mobile phase consisting of 0.1% phosphoric acid in water (A) and acetonitrile (B) was used via a gradient method, whereby %A: 95 and %B: 5 from 0.0–4.0 min; and %A: 80 and %B: 20 from 4.0–6.0 min. An Agilent Zorbax-Extend C18 column (50 × 4.6 mm, 1.8 μm) (Santa Clara, CA, USA) at 1.8 mL/min, with column temperature equilibrated at 40 ± 2 °C. […] Drug concentration was calculated by comparing the area under the curve (AUC) of the drug’s peak in samples to those produced with a calibration curve.

Regarding `C[C@@H]1C[C@H]2[C@@H]3CCC4=CC(=O)C=C[C@]4(C)[C@@]3(F)[C@@H](O)C[C@]2(C)[C@@]1(O)C(=O)CO` [dexamethasone], the “IL-6 levels in plasma compared to the LPS + vehicle control” value in the data set on IL-6 [1] was “significantly lower”. For the same compound, the “IL-6 concentration in colonic tissue compared to the untreated control” value in the data set with IL-6 [2] is on record as “did not significantly alter”. In addition, in the data set on IL-6 [3] (1 mg/kg dexamethasone oral, targeted vs untargeted comparison, 8 h), the “plasma IL-6 levels compared to the untreated control” value is “significantly reduce”. Further, the “plasma IL-6 compared to the untreated control” value with IL-6 [3] (1 mg/kg oral dexamethasone solution, dose response study) was “lowered”. The “colonic tissue IL-6 compared to the treatment-free control” value with IL-6 [4] (1 mg/kg dexamethasone) is “significantly lowered”.
On to `C[C@@H]1CCN(C(=O)CC#N)C[C@@H]1N(C)c1ncnc2[nH]ccc12` [tofacitinib, Tofacitinib citrate], for which, in the data set with rat colonic microbiota, the “time stable when delivered to the cecum/colon” value is listed as “at least 6 h”. Moreover, in the data set on IL-6 [4] (setting [5]), the “colonic IL-6 concentrations compared to the naïve rats” value is reported as “no significant difference” and the “colonic tissue IL-6 compared to 0.1 mg/kg tofacitinib” value is listed as “significantly lower”.
